The source of these data is ChEMBL document CHEMBL5038625, “Application of the dual-tail approach for the design and synthesis of novel Thiopyrimidine-Benzenesulfonamide hybrids as selective carbonic anhydrase inhibitors” (Eur J Med Chem, 2022).

Bounds are passed on as bounds.

The subject of one test is DU-145. Nature of the test: Antiproliferative activity against human DU-145 cells assessed as cell growth inhibition at 10 uM incubated for 24 hrs by sulforhodamine B assay. The format is functional. The conditions noted are these: read-out: GI.
In a further test the test system is SF-539. Nature of the test: Antiproliferative activity against human SF-539 cells assessed as cell growth inhibition at 10 uM incubated for 24 hrs by sulforhodamine B assay. The class given is functional. The conditions noted are these: read-out: GI.
The test system of another test is HL-60. In words: Antiproliferative activity against human HL-60 cells assessed as cell growth inhibition at 10 uM incubated for 24 hrs by sulforhodamine B assay. The format is functional. The conditions noted are these: read-out: GI.
A further test deals with HCT-15. Nature of the test: Antiproliferative activity against human HCT-15 cells assessed as cell growth inhibition at 10 uM incubated for 24 hrs by sulforhodamine B assay. The class given is functional. The conditions noted are these: read-out: GI.
In the next test the test system is LOX IMVI. Nature of the test: Antiproliferative activity against human LOX IMVI cells assessed as cell growth inhibition at 10 uM incubated for 24 hrs by sulforhodamine B assay. The format is functional. The conditions noted are these: read-out: GI.
A further test relates to HOP-92. Nature of the test: Antiproliferative activity against human HOP-92 cells assessed as cell growth inhibition at 10 uM incubated for 24 hrs by sulforhodamine B assay. The conditions noted are these: read-out: GI. The class given is functional.
A further test has as its system SR. In words: Antiproliferative activity against human SR cells assessed as cell growth inhibition at 10 uM incubated for 24 hrs by sulforhodamine B assay. The format is functional. The conditions noted are these: read-out: GI.
For another test, the system named is NCI-H23. Nature of the test: Antiproliferative activity against human NCI-H23 cells assessed as cell growth inhibition at 10 uM incubated for 24 hrs by sulforhodamine B assay. The class given is functional. The conditions noted are these: read-out: GI.
Another test relates to MCF7. Nature of the test: Antiproliferative activity against human MCF7 cells assessed as cell growth inhibition at 10 uM incubated for 24 hrs by sulforhodamine B assay. The format is functional. The conditions noted are these: read-out: GI.
Another test addresses Carbonic anhydrase 2 (Homo sapiens, UniProt P00918). In words: Inhibition of human CA2 preincubated for 15 mins by phenol red dye based stopped flow CO2 hydration assay.
Another test relates to Hs-578T. Nature of the test: Antiproliferative activity against human HS-578T cells assessed as cell growth inhibition at 10 uM incubated for 24 hrs by sulforhodamine B assay. The format is functional. The conditions noted are these: read-out: GI.
For a further test, the target named is Carbonic anhydrase 1 (Homo sapiens, UniProt P00915). Nature of the test: Inhibition of human CA1 preincubated for 15 mins by phenol red dye based stopped flow CO2 hydration assay.
A further test concerns K562. Nature of the test: Antiproliferative activity against human K562 cells assessed as cell growth inhibition at 10 uM incubated for 24 hrs by sulforhodamine B assay. The format is functional. The conditions noted are these: read-out: GI.
The test system of another test is Malme-3M. In words: Antiproliferative activity against human Malme-3M cells assessed as cell growth inhibition at 10 uM incubated for 24 hrs by sulforhodamine B assay. The conditions noted are these: read-out: GI. The format is functional.
A further test concerns UO-31. In words: Antiproliferative activity against human UO-31 cells assessed as cell growth inhibition at 10 uM incubated for 24 hrs by sulforhodamine B assay. The class given is functional. The conditions noted are these: read-out: GI.
A further test concerns the target Carbonic anhydrase 9 (Homo sapiens, UniProt Q16790). In words: Inhibition of human CA9 preincubated for 15 mins by phenol red dye based stopped flow CO2 hydration assay.
The next test concerns CAKI-1. Nature of the test: Antiproliferative activity against human CAKI-1 cells assessed as cell growth inhibition at 10 uM incubated for 24 hrs by sulforhodamine B assay. The conditions noted are these: read-out: GI. The class given is functional.
Another test concerns T47D. In words: Antiproliferative activity against human T47D cells assessed as cell growth inhibition at 10 uM incubated for 24 hrs by sulforhodamine B assay. The format is functional. The conditions noted are these: read-out: GI.
The test system of a further test is HCT-116. Nature of the test: Antiproliferative activity against human HCT-116 cells assessed as cell growth inhibition at 10 uM incubated for 24 hrs by sulforhodamine B assay. The format is functional. The conditions noted are these: read-out: GI.
A further test has as its system MDA-MB-231. Nature of the test: Antiproliferative activity against human MDA-MB-231 cells assessed as cell growth inhibition at 10 uM incubated for 24 hrs by sulforhodamine B assay. The format is functional. The conditions noted are these: read-out: GI.
For another test, the system named is SK-MEL-5. Nature of the test: Antiproliferative activity against human SK-MEL-5 cells assessed as cell growth inhibition at 10 uM incubated for 24 hrs by sulforhodamine B assay. The format is functional. The conditions noted are these: read-out: GI.
The next test has as its system EKVX. In words: Antiproliferative activity against human EKVX cells assessed as cell growth inhibition at 10 uM incubated for 24 hrs by sulforhodamine B assay. The class given is functional. The conditions noted are these: read-out: GI.
In a further test the test system is NCI/ADR-RES. Nature of the test: Antiproliferative activity against human NCI-ADR-RES cells assessed as cell growth inhibition at 10 uM incubated for 24 hrs by sulforhodamine B assay. The format is functional. The conditions noted are these: read-out: GI.
Another test concerns OVCAR-8. In words: Antiproliferative activity against human OVCAR-8 cells assessed as cell growth inhibition at 10 uM incubated for 24 hrs by sulforhodamine B assay. The class given is functional. The conditions noted are these: read-out: GI.
The subject of the next test is PC-3. In words: Antiproliferative activity against human PC-3 cells assessed as cell growth inhibition at 10 uM incubated for 24 hrs by sulforhodamine B assay. The class given is functional. The conditions noted are these: read-out: GI.
In a further test the test system is SF-295. Nature of the test: Antiproliferative activity against human SF-295 cells assessed as cell growth inhibition at 10 uM incubated for 24 hrs by sulforhodamine B assay. The class given is functional. The conditions noted are these: read-out: GI.
In another test the test system is CCRF-CEM. Nature of the test: Antiproliferative activity against human CCRF-CEM cells assessed as cell growth inhibition at 10 uM incubated for 24 hrs by sulforhodamine B assay. The class given is functional. The conditions noted are these: read-out: GI.
For the next test, the system named is SN12C. Nature of the test: Antiproliferative activity against human SN12C cells assessed as cell growth inhibition at 10 uM incubated for 24 hrs by sulforhodamine B assay. The class given is functional. The conditions noted are these: read-out: GI.
In the next test the test system is MOLT-4. In words: Antiproliferative activity against human MOLT-4 cells assessed as cell growth inhibition at 10 uM incubated for 24 hrs by sulforhodamine B assay. The format is functional. The conditions noted are these: read-out: GI.
The subject of another test is U-251. Nature of the test: Antiproliferative activity against human U-251 cells assessed as cell growth inhibition at 10 uM incubated for 24 hrs by sulforhodamine B assay. The class given is functional. The conditions noted are these: read-out: GI.
In the next test the test system is A549. Nature of the test: Antiproliferative activity against human A549 cells assessed as cell growth inhibition at 10 uM incubated for 24 hrs by sulforhodamine B assay. The format is functional. The conditions noted are these: read-out: GI.
The next test concerns RPMI-8226. Nature of the test: Antiproliferative activity against human RPMI-8226 cells assessed as cell growth inhibition at 10 uM incubated for 24 hrs by sulforhodamine B assay. The format is functional. The conditions noted are these: read-out: GI.
The test system of the next test is RXF 393. Nature of the test: Antiproliferative activity against human RXF 393 cells assessed as cell growth inhibition at 10 uM incubated for 24 hrs by sulforhodamine B assay. The conditions noted are these: read-out: GI. The class given is functional.
Another test has as its system NCI-H226. In words: Antiproliferative activity against human NCI-H226 cells assessed as cell growth inhibition at 10 uM incubated for 24 hrs by sulforhodamine B assay. The class given is functional. The conditions noted are these: read-out: GI.
Another test concerns OVCAR-4. In words: Antiproliferative activity against human OVCAR-4 cells assessed as cell growth inhibition at 10 uM incubated for 24 hrs by sulforhodamine B assay. The format is functional. The conditions noted are these: read-out: GI.
Another test has as its system A498. In words: Antiproliferative activity against human A498 cells assessed as cell growth inhibition at 10 uM incubated for 24 hrs by sulforhodamine B assay. The conditions noted are these: read-out: GI. The format is functional.
Another test deals with 786-0. Nature of the test: Antiproliferative activity against human 786-0 cells assessed as cell growth inhibition at 10 uM incubated for 24 hrs by sulforhodamine B assay. The class given is functional. The conditions noted are these: read-out: GI.
Another test relates to ACHN. In words: Antiproliferative activity against human ACHN cells assessed as cell growth inhibition at 10 uM incubated for 24 hrs by sulforhodamine B assay. The class given is functional. The conditions noted are these: read-out: GI.
A further test concerns KM12. Nature of the test: Antiproliferative activity against human KM12 cells assessed as cell growth inhibition at 10 uM incubated for 24 hrs by sulforhodamine B assay. The format is functional. The conditions noted are these: read-out: GI.
A further test deals with MDA-MB-468. Nature of the test: Antiproliferative activity against human MDA-MB-468 cells assessed as cell growth inhibition at 10 uM incubated for 24 hrs by sulforhodamine B assay. The format is functional. The conditions noted are these: read-out: GI.
Another test relates to SF-268. In words: Antiproliferative activity against human SF-268 cells assessed as cell growth inhibition at 10 uM incubated for 24 hrs by sulforhodamine B assay. The format is functional. The conditions noted are these: read-out: GI.

Sequence of Carbonic anhydrase 1 (P00915 whole entry): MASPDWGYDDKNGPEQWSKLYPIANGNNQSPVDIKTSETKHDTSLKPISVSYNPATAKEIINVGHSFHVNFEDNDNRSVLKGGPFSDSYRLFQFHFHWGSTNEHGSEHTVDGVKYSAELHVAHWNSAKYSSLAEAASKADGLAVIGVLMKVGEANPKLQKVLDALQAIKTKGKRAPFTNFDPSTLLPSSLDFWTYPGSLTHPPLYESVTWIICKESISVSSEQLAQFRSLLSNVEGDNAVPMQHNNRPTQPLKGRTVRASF

Turning to `Cc1ccc(-c2nc(SCC(=O)c3ccc(Br)cc3)nc(Nc3ccc(S(N)(=O)=O)cc3)c2C#N)cc1`, the inhibition of growth at 10 µM is 47.5% in the test with DU-145; 17.1% in the test with SF-539; under 5% with HL-60; 11.3% with HCT-15; 11.8% in the test with LOX IMVI; 40.4% in the test on HOP-92. Further, the inhibition of growth at 10 µM with SR is 11.4%; in the test with NCI-H23, 6.49%; in the test on MCF7 it was 16.5%; in the test on Hs-578T, 14.3%; with K562, 8%; in the test with Malme-3M it was 8.67%. The inhibition of growth at 10 µM was 22.4% with UO-31 and 13.7% with CAKI-1. Further, the Ki is over 20 µM on Carbonic anhydrase 2, over 20 µM on Carbonic anhydrase 1 and 8.74 µM on Carbonic anhydrase 9.

`CC(C)c1nc(SCC(=O)c2ccccc2)nc(Nc2cccc(S(N)(=O)=O)c2)c1C#N`: the inhibition of growth at 10 µM in the test on T47D came out at 17.9%; in the test on HCT-116, 5.73%; in the test with SF-539, 12.2%; in the test on MDA-MB-231 it was 14.9%; in the test with SK-MEL-5, 7.01%; in the test on EKVX, 5.72%. For the same compound, the inhibition of growth at 10 µM came to 25.2% in the test on HL-60; 12.1% with HCT-15; 5.69% with NCI/ADR-RES; 5% with OVCAR-8; 61% in the test on HOP-92; 19% in the test with SR. Besides, the inhibition of growth at 10 µM in the test with PC-3 came to 27.3%; in the test on MCF7, 12.6%; in the test on SF-295, 5.43%; in the test with K562, 26.7%; with UO-31, 27.4%; with CCRF-CEM it was 13.8%. In addition, the inhibition of growth at 10 µM with SN12C stood at 8.21%; in the test on MOLT-4 it was 28.2%; in the test on U-251 it was 5.45%; in the test with A549 it was 5.5%; with RPMI-8226, 17.9%; in the test with RXF 393 it was 17.3%. The inhibition of growth at 10 µM with NCI-H226 is 10%; in the test on OVCAR-4, 9.85%; with A498 it was 10.7%; with CAKI-1, 10.8%. In addition, the inhibition constant (Ki) on Carbonic anhydrase 9 came to 0.0923 µM.

As to `COc1ccc(C(=O)CSc2nc(Nc3cccc(S(N)(=O)=O)c3)c(C#N)c(-c3cc(OC)ccc3OC)n2)cc1`, the inhibition of growth at 10 µM in the test with T47D was 15.2%; in the test on SF-539, 11.2%; in the test on MDA-MB-231, 5.72%; with 786-0 it was 7.02%; in the test with EKVX it was 6.35%; in the test on HCT-15, 10.6%. The inhibition of growth at 10 µM was found to be 11.3% in the test on LOX IMVI; 12.7% in the test with SR; 8.57% with PC-3; 5.69% in the test on ACHN; 11.8% in the test on MCF7; 10.4% in the test with Hs-578T. Besides, the inhibition of growth at 10 µM worked out at 10.7% in the test with K562; 5.79% with KM12; 29.2% in the test on UO-31; 8.93% in the test on MDA-MB-468; 18.2% in the test on MOLT-4; 5.3% in the test on SF-268. Further, the inhibition of growth at 10 µM in the test on U-251 is 9.1%; with RPMI-8226, 12.6%; in the test with RXF 393, 11.7%; in the test with OVCAR-4, 7.16%; in the test with A498, 23.9%; with CAKI-1, 29.2%. In addition, at Carbonic anhydrase 9, the affinity, expressed as Ki, was 0.007 µM.
